{"source": "paper PMC11352409", "about": "“Subtype-Specific Ligand Binding and Activation Gating in Homomeric and Heteromeric P2X Receptors” (Biomolecules, 2024)", "target": "T1, human P2X2/3 receptors (Homo sapiens, UniProt P56373+Q9UBL9)", "T1 construct": "expressed in transfected cells", "T1 sequence (Q9UBL9 1-404 isoform Q9UBL9-2)": "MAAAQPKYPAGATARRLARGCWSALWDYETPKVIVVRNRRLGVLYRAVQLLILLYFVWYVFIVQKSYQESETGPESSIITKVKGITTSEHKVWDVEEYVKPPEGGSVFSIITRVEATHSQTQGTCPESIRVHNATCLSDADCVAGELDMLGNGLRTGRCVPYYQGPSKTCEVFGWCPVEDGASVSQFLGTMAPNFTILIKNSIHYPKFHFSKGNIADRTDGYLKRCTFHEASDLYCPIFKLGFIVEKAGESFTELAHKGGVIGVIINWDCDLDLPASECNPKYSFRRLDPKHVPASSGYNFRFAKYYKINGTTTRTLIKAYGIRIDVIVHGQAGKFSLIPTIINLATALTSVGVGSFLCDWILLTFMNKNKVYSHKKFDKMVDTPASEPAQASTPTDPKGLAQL", "T1 sequence (P56373 1-397)": "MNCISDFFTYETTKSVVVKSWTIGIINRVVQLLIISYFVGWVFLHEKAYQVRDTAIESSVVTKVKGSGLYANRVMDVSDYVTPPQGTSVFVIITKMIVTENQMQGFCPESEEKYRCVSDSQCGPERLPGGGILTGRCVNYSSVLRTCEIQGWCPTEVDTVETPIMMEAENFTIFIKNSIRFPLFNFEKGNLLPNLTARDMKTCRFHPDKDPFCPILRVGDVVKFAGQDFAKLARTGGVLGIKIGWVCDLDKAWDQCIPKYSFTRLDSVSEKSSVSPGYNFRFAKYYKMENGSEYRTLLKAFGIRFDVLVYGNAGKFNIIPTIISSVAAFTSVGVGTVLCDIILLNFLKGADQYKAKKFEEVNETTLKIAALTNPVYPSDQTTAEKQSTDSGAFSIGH", "test": "Confocal binding versus activation of fATP at hP2X2/3 in HEK293 cells", "conditions": "hP2X2/3, activation rescaled to value at maximal concentration", "procedure": "For the detection of ligand binding, the cells were incubated with the fluorescent ATP derivatives in chambered coverslips or 96-well plates with cover-slip bottoms. The surface was coated with 0.1 mg/mL of poly-L-lysine for 12 h and washed twice with PBS before seeding the cells at […] density. The cells were suspended 24 h after induction and allowed to settle for two hours before being utilised for the measurements. The solutions were freshly prepared before each experiment. The bulk solution was counter-stained with the red fluorescence dye Dy647. Each confocal voxel covering the cell membrane contained both the signal from the bound ligand and the signal from ligands in the bulk solution. This additional signal, e.g., the fraction of the bulk solution inside a voxel, varied from pixel to pixel and can hardly be described theoretically.\nBecause the difference in image noise contributed within both the bulk solution and the cells, the cell–bulk interfaces were selected using a Sobel operator [31] and appropriate filters/thresholds on the reference fluorophore signal. Note that only cell–bulk boundaries and not cell–cell boundaries were included in this approach. The method was described in detail previously.\nThe concentration–binding relationships were normalised to their maximum relative fluorescence intensities at a saturating fATP or α,βMe-fATP concentration. […]", "data": [{"smiles": "COCC[N+]1=C(C=CC=C2N(CCCCCC(=O)NCCCCCCSc3nc(N)c4ncn(C5OC(COP(=O)(O)OP(=O)(O)OP(=O)(O)O)C(O)C5O)c4n3)c3ccc(S(=O)(=O)O)cc3C2(C)C)C(C)(C)c2cc(S(=O)(=O)[O-])ccc21", "note": "(stereo not shown) [fATP, 2-[DY-547P1]-AHT-ATP]", "values": [{"measurement": "Concentration at which normalised concentration-activation and concentration-binding curves intersect", "value": "approximately 0.5 µM"}]}]}
